Key:
[1] = target: T1, Flt3 (h) (Homo sapiens, UniProt P36888); experiment: FLT3 in vitro peptide-based kinase assay, Protocol 1; format: biochemical
T1 sequence (P36888 27-993): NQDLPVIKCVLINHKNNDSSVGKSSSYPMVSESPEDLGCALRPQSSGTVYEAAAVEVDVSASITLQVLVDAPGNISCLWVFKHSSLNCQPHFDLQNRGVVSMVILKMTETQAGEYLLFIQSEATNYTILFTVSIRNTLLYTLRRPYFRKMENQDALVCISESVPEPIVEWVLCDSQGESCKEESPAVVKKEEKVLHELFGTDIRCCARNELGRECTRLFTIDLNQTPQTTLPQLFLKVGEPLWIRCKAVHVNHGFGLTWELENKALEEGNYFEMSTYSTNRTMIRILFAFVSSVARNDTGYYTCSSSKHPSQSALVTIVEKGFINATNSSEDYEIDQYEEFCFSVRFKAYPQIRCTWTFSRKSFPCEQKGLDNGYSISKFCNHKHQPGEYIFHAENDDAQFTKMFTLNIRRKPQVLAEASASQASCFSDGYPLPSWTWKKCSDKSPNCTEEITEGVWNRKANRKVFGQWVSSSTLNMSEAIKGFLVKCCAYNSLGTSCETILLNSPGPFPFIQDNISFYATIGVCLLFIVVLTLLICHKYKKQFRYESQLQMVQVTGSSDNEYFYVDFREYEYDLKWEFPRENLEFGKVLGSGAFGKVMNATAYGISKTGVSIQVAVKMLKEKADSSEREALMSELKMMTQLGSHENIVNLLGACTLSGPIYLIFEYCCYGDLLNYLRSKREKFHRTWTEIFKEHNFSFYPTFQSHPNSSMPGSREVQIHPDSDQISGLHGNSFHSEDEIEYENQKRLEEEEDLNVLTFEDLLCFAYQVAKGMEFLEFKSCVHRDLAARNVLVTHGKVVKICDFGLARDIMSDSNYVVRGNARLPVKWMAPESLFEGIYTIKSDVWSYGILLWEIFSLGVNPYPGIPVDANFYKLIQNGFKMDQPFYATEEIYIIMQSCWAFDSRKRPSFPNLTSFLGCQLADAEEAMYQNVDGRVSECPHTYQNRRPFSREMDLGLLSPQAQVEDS
Description: The inhibition of FLT3 kinase was assessed using FLT3 recombinant protein in an in vitro peptide-based kinase assay.
In a final reaction volume of 25 μL, Flt3 (h) (5-10 mU) is incubated with 8 mM MOPS pH 7.0, 0.2 mM EDTA, 50 μM EAIYAAPFAKKK, 10 mM MgAcetate and [g-33P-ATP] (specific activity approx. 500 cpm/pmol, concentration as required). The reaction is initiated by the addition of the MgATP mix. After incubation for 40 minutes at room temperature, the reaction is stopped by the addition of 5 μL of a 3% phosphoric acid solution. 10 μL of the reaction is then spotted onto a P30 filtermat and washed three times for 5 minutes in 75 mM phosphoric acid and once in methanol prior to drying and scintillation counting.

[2] = target: T2, FLT3 wt (Homo sapiens, UniProt P36888); experiment: radiometric protein kinase assay (33PanQinase Activity Assay) FLT3 wt, Protocol 2; format: biochemical; settings: ATP 3 μM
T2 construct: purchased Invitrogen Corporation
T2 sequence (P36888 27-993): T1 sequence (P36888 27-993)
Description: A radiometric protein kinase assay (33PanQinase® Activity Assay) was used for measuring the kinase activity. All kinase assays were performed in 96-well FlashPlates™ from PerkinElmer (Boston, Mass., USA) in a 50 μl reaction volume. The reaction cocktail was pipetted in four steps in the following order: • 20 μl of assay buffer (standard buffer) • 5 μl of ATP solution (in H2O) • 5 μl of test compound (in 10% DMSO) • 10 μl of substrate/10 μl of enzyme solution (premixed)
The assay for FLT3 wt contains 70 mM HEPES-NaOH pH 7.5, 3 mM MgCl2, 3 mM MnCl2, 3 μM Na-orthovanadate, 1.2 mM DTT, ATP (3 μM), [γ-33P]-ATP (approx. 5×1005 cpm per well), protein kinase FLT3 wt (6.1 nM) and substrate (poly(Ala,Glu,Lys,Tyr)6:2:5:1), 0.125 μg/50 μl).
The kinases are obtained from Invitrogen Corporation.
The reaction cocktails were incubated at 30° C. for 60 minutes. The reaction was stopped with 50 μl of 2% (v/v) H3PO4, plates were aspirated and washed two times with 200 μl 0.9% (w/v) NaCl. Incorporation of 33Pi was determined with a microplate scintillation counter.

Row | IC50 [1] [nM] | melting point [°C] | IC50 [2] [nM] | Compound
1 | 100 to 1000 | > 300 | – | CN(C)CCNC(=O)N1CCNCCOc2cccc(c2)-c2cnn3ccc1nc23 [Compound 11]
2 | < 100 | > 300 | – | OCc1ccc2cc1OCCOCCNc1ccn3ncc-2c3n1 [Compound 12]
3 | > 1000 | > 300 | – | c1cc2cc(c1)-c1cnn3ccc(nc13)OCCN(CCCN1CCCC1)CCO2 [Compound 13]
4 | > 1000 | – | – | O=C1NCCNCCN(CCO)c2ccn3ncc(c3n2)-c2cccc1c2 [Compound 14]
5 | 100 to 1000 | – | – | O=C1NCCN(C2CC2)CCN(CCO)c2ccn3ncc(c3n2)-c2cccc1c2 [Compound 15]
6 | – | > 300 | – | O=C(NCCF)c1ccc2cc1OCCOCCNc1ccn3ncc-2c3n1 [Compound 20]
7 | – | – | > 1000 | O=C1CNCCNc2ccn3ncc(c3n2)-c2cccc(c2)N1 [Compound 31]
8 | – | – | 100 to 1000 | COc1ccc2cc1OCCNCCNc1ccn3ncc-2c3n1 [Compound 32]
9 | – | – | 100 to 1000 | c1cc2cc(c1)-c1cnn3ccc(nc13)NCCCNCCO2 [Compound 33]
10 | – | – | > 1000 | O=C1CNCCNc2ccn3ncc(c3n2)-c2cccc(c2)CN1 [Compound 34]
11 | – | 234.9 | – | Fc1cc2cc(c1)-c1cnn3ccc(nc13)NCCOCCCO2 [Compound 35]

Second part, the compound before the results:

Row | Compound | IC50 [1] [nM] | melting point [°C] | IC50 [2] [nM]
12 | O=C(O)c1ccc2cc1OCCOCCNc1ccn3ncc-2c3n1 [Compound 1] | < 100 | > 300 | –
13 | CN1CCC(C(=O)N2CCOCCNc3ccn4ncc(c4n3)-c3cccc2c3)CC1 [Compound 2] | > 1000 | > 300 | –
14 | O=C1NCCCNc2ccn3ncc(c3n2)-c2cccc(c2)N1 [Compound 3] | < 100 | > 300 | –
15 | NC(=O)c1ccc2cc1OCCNCCNc1ccn3ncc-2c3n1 [Compound 4] | < 100 | > 300 | –
16 | c1cc2cc(c1)-c1cnn3ccc(nc13)NCCN(CCN1CCOCC1)CCO2 [Compound 5] | < 100 | > 300 | –
17 | CC(C)N1CCNc2ccn3ncc(c3n2)-c2cccc(c2)OCC1 [Compound 6] | < 100 | > 300 | –
18 | O=C1c2cccc(c2)-c2cnn3ccc(nc23)NCCNCCN1CCO [Compound 7] | 100 to 1000 | 271.6 | –
19 | O=C1NCCN(CCO)CCNc2ccn3ncc(c3n2)-c2cccc1c2 [Compound 8] | < 100 | 283.9 | –
20 | CN1CCNC(=O)c2cccc(c2)-c2cnn3ccc(nc23)NCC1 [Compound 9] | 100 to 1000 | 287.6 | –
21 | O=C(NCCCN1CCCC1)N1CCNCCOc2cccc(c2)-c2cnn3ccc1nc23 [Compound 10] | < 100 | – | –
